Experiments:
[1] = biological target: T1, GL-7-ACA acylase of P. nitroreducens ATCC 33634 (Pseudomonas nitroreducens, UniProt E0D5C2); experiment: Effect of various inhibitors on the acylase activity; format: biochemical
T1 construct: periplasmic
T1 sequence (E0D5C2 24-556): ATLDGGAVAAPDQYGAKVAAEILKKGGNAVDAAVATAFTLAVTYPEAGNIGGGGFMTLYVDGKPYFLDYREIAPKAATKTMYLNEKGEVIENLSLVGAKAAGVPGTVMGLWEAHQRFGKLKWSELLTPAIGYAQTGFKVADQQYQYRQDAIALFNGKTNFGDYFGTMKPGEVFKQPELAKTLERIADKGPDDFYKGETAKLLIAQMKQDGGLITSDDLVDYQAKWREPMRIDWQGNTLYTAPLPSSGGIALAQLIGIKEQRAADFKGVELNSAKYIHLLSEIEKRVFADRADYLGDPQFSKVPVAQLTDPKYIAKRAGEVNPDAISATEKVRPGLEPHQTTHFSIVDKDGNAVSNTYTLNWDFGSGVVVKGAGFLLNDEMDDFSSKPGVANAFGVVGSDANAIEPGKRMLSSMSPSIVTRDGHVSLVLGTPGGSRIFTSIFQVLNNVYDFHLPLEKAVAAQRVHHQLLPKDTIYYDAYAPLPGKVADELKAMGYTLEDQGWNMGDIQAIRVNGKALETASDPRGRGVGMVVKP
T1 sequence (E0D5C2 25-556 partner): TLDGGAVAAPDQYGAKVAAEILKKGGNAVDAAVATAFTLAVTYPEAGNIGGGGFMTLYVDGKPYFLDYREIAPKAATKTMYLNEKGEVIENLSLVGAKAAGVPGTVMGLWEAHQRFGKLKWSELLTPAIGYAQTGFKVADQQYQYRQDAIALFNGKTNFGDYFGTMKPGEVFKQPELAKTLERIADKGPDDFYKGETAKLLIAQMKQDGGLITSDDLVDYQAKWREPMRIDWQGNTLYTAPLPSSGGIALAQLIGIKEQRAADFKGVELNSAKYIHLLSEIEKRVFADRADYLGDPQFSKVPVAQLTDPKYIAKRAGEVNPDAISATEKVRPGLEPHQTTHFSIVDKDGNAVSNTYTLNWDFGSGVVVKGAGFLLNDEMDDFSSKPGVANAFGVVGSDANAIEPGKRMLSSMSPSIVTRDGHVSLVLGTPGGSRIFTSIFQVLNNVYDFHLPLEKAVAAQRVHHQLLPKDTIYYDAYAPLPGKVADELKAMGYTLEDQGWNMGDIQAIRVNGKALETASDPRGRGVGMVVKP
Procedure: It has been reported that the activity of GL-7-ACA acylases can be inhibited by their own products, e.g., 7-ACA and glutaric acid. Thus, the inhibitory effects of various compounds on the present acylase were tested (Table 4). The compounds were 7-ACA, glutaric acid, glutamate, succinyl-7-ACA, and Ceph C, all of which were used at 20 mM.

[2] = biological target: T1, GL-7-ACA acylase of P. nitroreducens ATCC 33634; experiment: Substrate profile of GL-7-ACA acylase, whole cells of ATCC 33634; format: biochemical; details: for activity as substrate, in words: cells of ATCC 33634, compared with GL-7-ACA; for relative activity (percentage relative to the activity for GL7-ACA): whole cells of ATCC 33634, 0.2 g/l substrate, 37° C., 3 hr
Procedure: (§1) Colonies forming clear zones were cultivated in Nutrient Broth (Difco, Detroit, Mich.) and tested for GL-7-ACA acylase activity as described by Shibuya et al. (Agric. Biol. Chem. 45: 1561-1567, 1981). The whole-cell suspension of ATCC 33634 in 100 mM acetate buffer (pH 5.0) was used as the acylase source. One unit of the acylase activity was defined as the amount of enzyme that liberates 1 μmole of […] per min.
Cells of ATCC 33634 were used to convert GL-7-ACA and related compounds (Table 2). GL-7-ACA, GL-7-ADCA, and succinyl-7-ACA were prepared according to the method of Shibuya et al. (Agric. Biol. Chem. 45: 1561-1567, 1981).
^a The relative GL7-ACA acylase activity was presented as percentage
relative to the activity for GL7-ACA. Whole cells of ATCC 33634 were
incubated with 0.2 g/l of GL7-ACA, GL7-ADCA, succinyl 7ACA, or Ceph C at […]

[3] = tested on: P. nitroreducens ATCC 33634; experiment: Effect of composition of media on production of GL-7-ACA acylase; format: cell-based, Pseudomonas nitroreducens
Procedure: as §1
To obtain the optimal medium for P. nitroreducens ATCC 33634 cultivation, various media were tested according to the report of Nikolov and Danielsson (Enzyme Microbiol. Technol. 16: 1031-1036, 1994) (Table 1). The cultivation was carried out in 500 ml flasks containing 100 ml of media (Table 1) at 30° C. and 150 rpm for 24 hr. All media were adjusted to pH 7.5 before autoclaving. Yeast extract, casein, peptone, and meat extract were purchased from Difco Laboratories Inc. (Detroit, Mich.).

CC(=O)OCC1=C(C(=O)O)N2C(=O)[C@@H](N)[C@H]2SC1 [7-ACA, 7-Aminocephalosporanic acid]
inhibitory effect, in words ([1]; compounds used at 20 mM): strongest inhibitory effects

CC(=O)OCC1=C(C(=O)O)N2C(=O)[C@@H](NC(=O)CCC[C@@H](N)C(=O)O)[C@H]2SC1 [Ceph C, cephalosporin C]
activity as substrate, in words [2]: No activity was detected | relative activity (percentage relative to the activity for GL7-ACA) [2]: not detected

CC(=O)OCC1=C(C(=O)O)N2C(=O)[C@@H](NC(=O)CCCC(=O)O)[C@H]2SC1 [GL-7-ACA, glutaryl-7-aminocephalo-sporanic acid]
relative activity (percentage relative to the activity for GL7-ACA) [2]: 100%

CC1=C(C(=O)O)N2C(=O)[C@@H](NC(=O)CCCC(=O)O)[C@H]2SC1 [GL-7-ADCA, glutaryl-desacetoxy-7-aminocephalosporanic acid]
activity as substrate, in words [2]: nearly three times more activity | relative activity (percentage relative to the activity for GL7-ACA) [2]: 294%

N[C@@H](CCC(=O)O)C(=O)O [Glutamate, glutamate]
Relative activity (%) of acylase with inhibitor [1]: < 1%

O=C(O)CCCC(=O)O [Glutaric acid, glutaric acid]
inhibition of the enzyme activity ([3]; glutaric acid at 0.12%): up to 50% | induction of GL-7-ACA acylase activity ([3]; in ATCC 33634): did not induce | lowest concentration that inhibited the acylase activity ([3]; in ATCC 33634): 0.02%

CC(=O)OCC1=C(C(=O)O)N2C(=O)[C@@H](NC(=O)CCC(=O)O)[C@H]2SC1 [Succinyl-7ACA, succinyl-7-ACA]
activity as substrate, in words [2]: No activity was detected | relative activity (percentage relative to the activity for GL7-ACA) [2]: not detected
